Data published in PubChem BioAssay (NCI).
Values joined by “and” are separate entries in the source; they are usually repeats but may differ in a detail not shown here. Equal entries are not always repeated.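 Five compound concentrations were applied to cells in 96-well plates for 48 hours; endpoints were derived by simple linear interpolation of the resulting dose-response curve. Abbreviation: GI50, concentration required for 50% inhibition of growth. At the TGI there is no net growth.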

How the values were obtained:
Assay in all cases: NCI-60 cell line screen, 48 h
[1] = tested on: LOX IMVI melanoma
[2] = tested on: SNB-75 CNS
[3] = tested on: IGROV1 ovarian
[4] = tested on: SF-268 CNS
[5] = tested on: SK-MEL-5 melanoma
[6] = tested on: NCI-H460 lung
[7] = tested on: HS 578T breast
[8] = tested on: NCI-H522 lung
[9] = tested on: OVCAR-5 ovarian
[10] = tested on: MALME-3M melanoma

Row | SMILES | GI50 [1] | GI50 [2] [µM] | GI50 [3] | TGI [3] | GI50 [4] | TGI [4] | GI50 [5] | TGI [5] | GI50 [6] | GI50 [7] | TGI [7] | GI50 [8] | GI50 [9] | TGI [9] | GI50 [10] | TGI [10] | TGI [1] | TGI [2] [µM] | TGI [6] [µM] | TGI [8]
1 | CCCCCCCCCCCCCCCCOP(=O)([O-])OCC[N+](C)(C)C | 1.36 µM | 1.43 | 0.901 µM | 3.7 µM and 14 µM | 2.93 µM | 13.7 µM and 52.7 µM | 1.92 µM | 5.35 µM and 52 µM | 0.518 µM | 4.21 µM | 18.9 µM and 40.7 µM | 0.885 µM | 0.735 µM | 4.04 µM and 24.9 µM | 3.1 µM | 12.6 µM and 52.7 µM | – | – | – | –
2 | O=C(CI)Nc1ccc(O)c2ccccc12 | 1.28 µM | 1.61 | 0.296 µM | 0.926 µM | 2.03 µM | 5.56 µM | 1.63 µM | 3.08 µM | 2.13 µM | 2.45 µM | 8.49 µM | 0.142 µM | 1.85 µM | 3.55 µM | 0.547 µM | 1.16 µM | 2.68 µM | 4.98 | 4.71 | 0.297 µM
3 | O=CN1N=C(c2cccc(Nc3ccnc4cc(Cl)ccc34)c2)CC1c1ccccc1 (stereo not drawn) | 0.449 µM | 0.191 | 0.687 µM | > 100 µM | 0.768 µM | 41.2 µM | 0.315 µM | 2.02 µM | 0.393 µM | 0.248 µM | 3.4 µM | 0.185 µM | 1.5 µM | > 100 µM | 0.373 µM | > 100 µM | 4.34 µM | 1.83 | 8.4 | 0.633 µM
4 | Cn1nc(C(F)(F)F)c(-c2cc(C(F)(F)F)cc(C(F)(F)F)c2)c1-c1ccc(OCc2ccc(Cl)cc2)cc1O | 1.98 µM | 2.17 | 2.71 µM | 12.5 µM | 2.65 µM | 13 µM | 1.45 µM | 3.11 µM | 2.16 µM | 2.19 µM | 6.78 µM | 1.94 µM | 3.29 µM | 15 µM | 1.99 µM | 5.24 µM | 4.31 µM | 10.5 | 5.5 | 9.16 µM
5 | COc1cc(OC)c(OC)cc1/C=C/c1cnnc2ccccc12 | – | – | – | > 10 µM | – | > 10 µM | – | > 10 µM | – | – | > 10 µM | – | – | > 10 µM | – | > 10 µM | > 10 µM | > 10 | > 10 | > 10 µM
6 | O=C(c1ccccc1)c1c(C(F)(F)F)n([O-])c2cc(C(F)(F)F)ccc2[n+]1=O | 0.258 µM | 1.63 | 0.207 µM | 0.489 µM | 1.58 µM | 3.14 µM | 1.69 µM | 3.24 µM | 1.68 µM | 1.8 µM | 4.29 µM | 1.23 µM | 1.99 µM | 5.54 µM | 1.6 µM | 3.33 µM | 0.745 µM | 3.05 | 3.42 | 2.72 µM
7 | CC(C)c1cccc(O)c(=O)c1 | 1.94 µg/mL | – | 1.6 µg/mL | > 75 µg/mL and > 100 µM | 1.55 µg/mL | 23.6 µg/mL and > 61.6 µM | 1.35 µg/mL | – | 0.31 µg/mL | 1.98 µg/mL | 38.6 µg/mL | 5.16 µg/mL | 75 µg/mL | > 75 µg/mL and > 100 µM | 9.77 µg/mL | 48.3 µg/mL and > 81.2 µM | > 75 µg/mL and > 100 µM | > 92.6 | – | 28 µg/mL and > 73.1 µM
8 | C[C@H]1CNC(=O)c2cnn3ccc(nc23)N[C@H](C)c2cc(F)ccc2O1 | 0.334 µM | 0.146 | 0.292 µM | 1.92 µM | 0.809 µM | 3.79 µM | 8.91 µM | 32.3 µM | 0.946 µM | 0.325 µM | 2.76 µM | 2.43 µM | 0.385 µM | 9.56 µM | 16.6 µM | > 100 µM | 1.43 µM | 1.05 | 25.1 | 24.4 µM
9 | COC(=O)c1c2c(c(C)[n+]([O-])c1C)C(=O)C=C(NCc1cccc(Cl)c1)C2=O | 0.0687 µM | 1.64 | 0.221 µM | 1.09 µM | 0.737 µM | 3.15 µM | 0.167 µM | 0.316 µM | 0.381 µM | 1.77 µM | 6.79 µM | 0.261 µM | 1.18 µM | 2.57 µM | 0.136 µM | 0.309 µM | 1.35 µM | 3.01 | 1.6 | 1.7 µM
10 | O=C(C#Cc1ccccc1)C1=Cc2ccccc2OC1 | – | – | – | 6.37 µM | – | 12.5 µM | – | 4.89 µM | – | – | 23.8 µM | – | – | 15 µM | – | 13.2 µM | 6.32 µM | 13.3 | 23.7 | 3.42 µM
